From publication PMC10787880, “Structural and functional characterization of a new thermophilic-like OYE from Aspergillus flavus” (Applied Microbiology and Biotechnology, 2024) come the findings set out here.

The target of the experiment is T1, AfOYE1 (Aspergillus flavus, UniProt B8N8Q9).
T1 construct: gene afvA; codon-optimised gene in pET28b, E. coli BL21(DE3); N-terminal His6-TEV tag, cut by TEV protease; about 43 kDa; dimer in the crystal; non-covalent FMN
The experiment is described as follows: X-ray crystal structure […] Å; UV-visible spectrum of released flavin. The experiment is classed as binding. As to conditions: non-covalent prosthetic group, active site; chloride and ethylene glycol also in site.

T1 sequence (B8N8Q9 whole entry): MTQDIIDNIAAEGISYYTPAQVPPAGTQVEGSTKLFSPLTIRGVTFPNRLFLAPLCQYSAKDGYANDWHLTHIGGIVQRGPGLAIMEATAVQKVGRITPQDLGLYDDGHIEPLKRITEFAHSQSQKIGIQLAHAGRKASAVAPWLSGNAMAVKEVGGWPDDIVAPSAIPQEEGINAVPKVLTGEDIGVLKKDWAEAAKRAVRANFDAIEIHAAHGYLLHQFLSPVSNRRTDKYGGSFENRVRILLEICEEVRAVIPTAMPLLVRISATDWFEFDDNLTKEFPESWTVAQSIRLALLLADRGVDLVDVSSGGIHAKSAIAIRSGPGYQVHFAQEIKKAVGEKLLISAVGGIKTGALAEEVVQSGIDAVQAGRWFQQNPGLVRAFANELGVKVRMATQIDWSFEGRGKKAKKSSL

As to `Cc1cc2nc3c(=O)[nH]c(=O)nc-3n(C[C@H](O)[C@H](O)[C@H](O)COP(=O)(O)O)c2cc1C` [FMN], the “X-ray crystal structure 1.55 Å; UV-visible spectrum of released flavin” value is recorded as “On the top of the β-barrel core of each monomer encircles one FMN cofactor”.
